# Measurements reported in patent US20260001928A1 (CORTERIA PHARMACEUTICALS, priority 2022, published 2026).
# *1 amine or outer side, *2 acyl side, *3 side chain or, on linkers, in order; H or OH if unused. Where a SMILES comes first, the peptide text is derived from it. Side-chain parts run from the residue outwards. [ ]: non-standard residue; d: D form. The star is where a group is joined. C20 diacid = O=C(O)CCCCCCCCCCCCCCCCCCC(=O)*; γGlu = O=C(O)[C@H](CCC(=O)[*:2])N[*:1]; C14 diacid = O=C(O)CCCCCCCCCCCCC(=O)*; NMeI = CC[C@H](C)[C@H](NC)C(=O)O; AEEA = NCCOCCOCC(=O)O; Aib = CC(C)(N)C(=O)O
# Key:
# human LAD2 cells = assay type: cell-based
# Outline: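 Mast cell degranulation: cells exposed to peptides for 30 min at final concentrations from 50, 100 or 300 down to 0.1 or 0.001 μM, with 0.5% DMSO where used, in biological duplicates. β-hexosaminidase release was read with a fluorogenic 4-methylumbelliferyl substrate as supernatant/(supernatant + Triton-lysed pellet) × 100. EC50 came from a 4-parameter sigmoidal fit.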
# [1] = target: Rat CRF2 a (corticotropin-releasing factor receptor 2), on the A7R5 rat aortic smooth muscle cell line (rat, UniProt P47866 20-411); test: cell-based or functional assay
# Chain of Rat CRF2 a (corticotropin-releasing factor receptor 2), on the A7R5 rat aortic smooth muscle cell line (P47866 20-411): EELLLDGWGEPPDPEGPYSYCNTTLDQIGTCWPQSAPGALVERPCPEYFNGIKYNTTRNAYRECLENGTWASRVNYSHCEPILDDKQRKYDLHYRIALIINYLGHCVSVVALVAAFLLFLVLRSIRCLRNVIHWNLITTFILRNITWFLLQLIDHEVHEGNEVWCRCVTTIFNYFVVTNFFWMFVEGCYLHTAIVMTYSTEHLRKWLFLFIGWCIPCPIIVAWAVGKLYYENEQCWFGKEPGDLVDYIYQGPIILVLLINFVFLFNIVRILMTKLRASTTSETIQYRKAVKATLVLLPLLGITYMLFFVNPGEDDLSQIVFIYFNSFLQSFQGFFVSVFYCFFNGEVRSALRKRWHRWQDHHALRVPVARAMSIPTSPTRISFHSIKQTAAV
EC50 (human LAD2 cells),"EC50 [nM] 0% HSA (cAMP, A7R5 rat aortic smooth muscle cells) [1]",Molecule
74.1 µM,–,CC[C@H](C)[C@H](NC(C)=O)C(=O)N[C@H](C(=O)N[C@@H](CC(C)C)C(=O)N[C@@H](CO)C(=O)N[C@@H](CC(C)C)C(=O)N[C@@H](CC(=O)O)C(=O)N[C@@H](C(=O)N1CCC[C@H]1C(=O)N[C@H](C(=O)N[C@@H](CCCCN)C(=O)N[C@@H](CC(C)C)C(=O)N[C@@H](CCCCNC(=O)COCCOCCNC(=O)COCCOCCNC(=O)CC[C@H](NC(=O)CCCCCCCCCCCCCCCCCCC(=O)O)C(=O)O)C(=O)N[C@@H](CCCCN)C(=O)N[C@H](C(=O)N[C@@H](CC(C)C)C(=O)N[C@@H](CC(C)C)C(=O)N[C@@H](CCC(=O)O)C(=O)N[C@@H](CCC(N)=O)C(=O)N[C@@H](CCC(=O)O)C(=O)N[C@@H](CCCCN)C(=O)N[C@@H](CCC(N)=O)C(=O)N[C@@H](CCCCN)C(=O)N[C@@H](CCC(=O)O)C(=O)N[C@@H](CCC(N)=O)C(=O)N[C@@H](CCCNC(=N)N)C(=O)N[C@@H](CCC(=O)O)C(=O)N[C@@H](CCC(N)=O)C(=O)N[C@@H](C)C(=O)N[C@@H](CCC(=O)O)C(=O)N[C@H](C(=O)N[C@@H](CC(N)=O)C(=O)NC(C)(C)C(=O)N[C@@H](CCC(N)=O)C(=O)N[C@H](C(=O)N[C@@H](CC(C)C)C(=O)N[C@@H](C)C(=O)N[C@@H](CCC(N)=O)C(=O)N[C@H](C(N)=O)C(C)C)[C@@H](C)CC)[C@@H](C)O)[C@@H](C)CC)[C@@H](C)CC)C(C)C)C(C)C [Cmpd 236] (Ac-IVLSLD[dV]PIKLK([AEEA-AEEA-γGlu-C20 diacid])KILLEQEKQKEQREQAETN[Aib]QILAQV-NH2)
36.7 µM,–,CC[C@H](C)[C@H](NC(C)=O)C(=O)N[C@H](C(=O)N[C@@H](CC(C)C)C(=O)N[C@@H](CO)C(=O)N[C@@H](CC(C)C)C(=O)N[C@@H](CC(=O)O)C(=O)N[C@@H](C(=O)N1CCC[C@H]1C(=O)N[C@H](C(=O)N[C@@H](CCCCN)C(=O)N[C@@H](CC(C)C)C(=O)N[C@@H](CCCCNC(=O)COCCOCCNC(=O)COCCOCCNC(=O)CC[C@H](NC(=O)CCCCCCCCCCCCCCCCCCC(=O)O)C(=O)O)C(=O)N[C@@H](CCCCN)C(=O)N[C@H](C(=O)N[C@@H](CC(C)C)C(=O)N[C@@H](CC(C)C)C(=O)N[C@@H](CCC(=O)O)C(=O)N[C@@H](CCC(N)=O)C(=O)N[C@@H](CCC(=O)O)C(=O)N[C@@H](CCCCN)C(=O)N[C@@H](CCC(N)=O)C(=O)N[C@@H](CCCCN)C(=O)N[C@@H](CCCCN)C(=O)N[C@@H](CCC(N)=O)C(=O)N[C@@H](CCCNC(=N)N)C(=O)N[C@@H](CCC(=O)O)C(=O)N[C@@H](CCC(N)=O)C(=O)N[C@@H](C)C(=O)N[C@@H](CCC(=O)O)C(=O)N[C@H](C(=O)N[C@@H](CC(N)=O)C(=O)NC(C)(C)C(=O)N[C@@H](CCC(N)=O)C(=O)N[C@H](C(=O)N[C@@H](CC(C)C)C(=O)N[C@@H](C)C(=O)N[C@@H](CCC(N)=O)C(=O)N[C@H](C(N)=O)C(C)C)[C@@H](C)CC)[C@@H](C)O)[C@@H](C)CC)[C@@H](C)CC)C(C)C)C(C)C [Cmpd 238] (Ac-IVLSLD[dV]PIKLK([AEEA-AEEA-γGlu-C20 diacid])KILLEQEKQKKQREQAETN[Aib]QILAQV-NH2)
> 300 µM,–,CC[C@H](C)[C@H](NC)C(=O)N[C@H](C(=O)N[C@@H](CC(C)C)C(=O)N[C@@H](CO)C(=O)N[C@@H](CC(C)C)C(=O)N[C@@H](CC(=O)O)C(=O)N[C@@H](C(=O)N1CCC[C@H]1C(=O)N[C@H](C(=O)N[C@@H](CCCCN)C(=O)N[C@@H](CC(C)C)C(=O)N[C@@H](CCCCNC(=O)CC[C@H](NC(=O)CC[C@H](NC(=O)CCCCCCCCCCCCCCCCCCC(=O)O)C(=O)O)C(=O)O)C(=O)N[C@@H](CCCCN)C(=O)N[C@H](C(=O)N[C@@H](CC(C)C)C(=O)N[C@@H](CC(C)C)C(=O)N[C@@H](CCC(=O)O)C(=O)N[C@@H](CCC(N)=O)C(=O)N[C@@H](CCC(=O)O)C(=O)N[C@@H](CCCCN)C(=O)N[C@@H](CCC(N)=O)C(=O)N[C@@H](CCCCN)C(=O)N[C@@H](CCC(=O)O)C(=O)N[C@@H](CCC(N)=O)C(=O)N[C@@H](CCCNC(=N)N)C(=O)N[C@@H](CCC(=O)O)C(=O)N[C@@H](CCC(N)=O)C(=O)N[C@@H](C)C(=O)N[C@@H](CCC(=O)O)C(=O)N[C@H](C(=O)N[C@@H](CC(N)=O)C(=O)NC(C)(C)C(=O)N[C@@H](CCC(N)=O)C(=O)N[C@H](C(=O)N[C@@H](CC(C)C)C(=O)N[C@@H](C)C(=O)N[C@@H](CCC(N)=O)C(=O)N[C@H](C(N)=O)C(C)C)[C@@H](C)CC)[C@@H](C)O)[C@@H](C)CC)[C@@H](C)CC)C(C)C)C(C)C [Cmpd 242] (H-[NMeI]VLSLD[dV]PIKLK([γGlu-γGlu-C20 diacid])KILLEQEKQKEQREQAETN[Aib]QILAQV-NH2)
–,1.01 nM,Ac-IVLSLD[dV]PIKLK([γGlu-C14 diacid])KILLEQEKQKKQREQAETNEQILAQV-NH2 [comparative peptide 11 (SEQ ID NO: 85)]

# Further lines, the molecule ahead of its results:
Molecule,EC50 (human LAD2 cells),"EC50 [nM] 0% HSA (cAMP, A7R5 rat aortic smooth muscle cells) [1]"
CC[C@H](C)[C@H](NC)C(=O)N[C@H](C(=O)N[C@@H](CC(C)C)C(=O)N[C@@H](CO)C(=O)N[C@@H](CC(C)C)C(=O)N[C@@H](CC(=O)O)C(=O)N[C@@H](C(=O)N1CCC[C@H]1C(=O)N[C@H](C(=O)N[C@@H](CCCCN)C(=O)N[C@@H](CC(C)C)C(=O)N[C@@H](CCCCNC(=O)COCCOCCNC(=O)COCCOCCNC(=O)CC[C@H](NC(=O)CCCCCCCCCCCCCCCCCCC(=O)O)C(=O)O)C(=O)N[C@@H](CCCCN)C(=O)N[C@H](C(=O)N[C@@H](CC(C)C)C(=O)N[C@@H](CC(C)C)C(=O)N[C@@H](CCC(=O)O)C(=O)N[C@@H](CCC(N)=O)C(=O)N[C@@H](CCC(=O)O)C(=O)N[C@@H](CCCCN)C(=O)N[C@@H](CCC(N)=O)C(=O)N[C@@H](CCCCN)C(=O)N[C@@H](CCC(=O)O)C(=O)N[C@@H](CCC(N)=O)C(=O)N[C@@H](CCCNC(=N)N)C(=O)N[C@@H](CCC(=O)O)C(=O)N[C@@H](CCC(N)=O)C(=O)N[C@@H](C)C(=O)N[C@@H](CCC(=O)O)C(=O)N[C@H](C(=O)N[C@@H](CC(N)=O)C(=O)NC(C)(C)C(=O)N[C@@H](CCC(N)=O)C(=O)N[C@H](C(=O)N[C@@H](CC(C)C)C(=O)N[C@@H](C)C(=O)N[C@@H](CCC(N)=O)C(=O)N[C@H](C(N)=O)C(C)C)[C@@H](C)CC)[C@@H](C)O)[C@@H](C)CC)[C@@H](C)CC)C(C)C)C(C)C [Cmpd 237] (H-[NMeI]VLSLD[dV]PIKLK([AEEA-AEEA-γGlu-C20 diacid])KILLEQEKQKEQREQAETN[Aib]QILAQV-NH2),> 300 µM,–
CC[C@H](C)[C@H](NC(C)=O)C(=O)N[C@H](C(=O)N[C@@H](CC(C)C)C(=O)N[C@@H](CO)C(=O)N[C@@H](CC(C)C)C(=O)N[C@@H](CC(=O)O)C(=O)N[C@@H](C(=O)N1CCC[C@H]1C(=O)N[C@H](C(=O)N[C@@H](CCCCN)C(=O)N[C@@H](CC(C)C)C(=O)N[C@@H](CCCCNC(=O)CC[C@H](NC(=O)CC[C@H](NC(=O)CCCCCCCCCCCCCCCCCCC(=O)O)C(=O)O)C(=O)O)C(=O)N[C@@H](CCCCN)C(=O)N[C@H](C(=O)N[C@@H](CC(C)C)C(=O)N[C@@H](CC(C)C)C(=O)N[C@@H](CCC(=O)O)C(=O)N[C@@H](CCC(N)=O)C(=O)N[C@@H](CCC(=O)O)C(=O)N[C@@H](CCCCN)C(=O)N[C@@H](CCC(N)=O)C(=O)N[C@@H](CCCCN)C(=O)N[C@@H](CCC(=O)O)C(=O)N[C@@H](CCC(N)=O)C(=O)N[C@@H](CCCNC(=N)N)C(=O)N[C@@H](CCC(=O)O)C(=O)N[C@@H](CCC(N)=O)C(=O)N[C@@H](C)C(=O)N[C@@H](CCC(=O)O)C(=O)N[C@H](C(=O)N[C@@H](CC(N)=O)C(=O)NC(C)(C)C(=O)N[C@@H](CCC(N)=O)C(=O)N[C@H](C(=O)N[C@@H](CC(C)C)C(=O)N[C@@H](C)C(=O)N[C@@H](CCC(N)=O)C(=O)N[C@H](C(N)=O)C(C)C)[C@@H](C)CC)[C@@H](C)O)[C@@H](C)CC)[C@@H](C)CC)C(C)C)C(C)C [Cmpd 241] (Ac-IVLSLD[dV]PIKLK([γGlu-γGlu-C20 diacid])KILLEQEKQKEQREQAETN[Aib]QILAQV-NH2),> 300 µM,–
CC[C@H](C)[C@H](NC(C)=O)C(=O)N[C@H](C(=O)N[C@@H](CC(C)C)C(=O)N[C@@H](CO)C(=O)N[C@@H](CC(C)C)C(=O)N[C@@H](CC(=O)O)C(=O)N[C@@H](C(=O)N1CCC[C@H]1C(=O)N[C@H](C(=O)N[C@@H](CCCCN)C(=O)N[C@@H](CC(C)C)C(=O)N[C@@H](CCCCNC(=O)CC[C@H](NC(=O)CC[C@H](NC(=O)CCCCCCCCCCCCCCCCCCC(=O)O)C(=O)O)C(=O)O)C(=O)N[C@@H](CCCCN)C(=O)N[C@H](C(=O)N[C@@H](CC(C)C)C(=O)N[C@@H](CC(C)C)C(=O)N[C@@H](CCC(=O)O)C(=O)N[C@@H](CCC(N)=O)C(=O)N[C@@H](CCC(=O)O)C(=O)N[C@@H](CCCCN)C(=O)N[C@@H](CCC(N)=O)C(=O)N[C@@H](CCCCN)C(=O)N[C@@H](CCCCN)C(=O)N[C@@H](CCC(N)=O)C(=O)N[C@@H](CCCNC(=N)N)C(=O)N[C@@H](CCC(=O)O)C(=O)N[C@@H](CCC(N)=O)C(=O)N[C@@H](C)C(=O)N[C@@H](CCC(=O)O)C(=O)N[C@H](C(=O)N[C@@H](CC(N)=O)C(=O)NC(C)(C)C(=O)N[C@@H](CCC(N)=O)C(=O)N[C@H](C(=O)N[C@@H](CC(C)C)C(=O)N[C@@H](C)C(=O)N[C@@H](CCC(N)=O)C(=O)N[C@H](C(N)=O)C(C)C)[C@@H](C)CC)[C@@H](C)O)[C@@H](C)CC)[C@@H](C)CC)C(C)C)C(C)C [Cmpd 243] (Ac-IVLSLD[dV]PIKLK([γGlu-γGlu-C20 diacid])KILLEQEKQKKQREQAETN[Aib]QILAQV-NH2),> 300 µM,–
"NC(N)=NCCC[C@@H](N)C(=O)N[C@@H](CCCN=C(N)N)C(=O)N1CCC[C@H]1C(=O)N1C[C@H](O)C[C@H]1C(=O)NCC(=O)N[C@@H](Cc1cccs1)C(=O)N[C@@H](CO)C(=O)N1Cc2ccccc2C[C@@H]1C(=O)N1[C@H](C(=O)N[C@@H](CCCN=C(N)N)C(=O)O)C[C@@H]2CCCC[C@@H]21 [Icatibant, reference compound]",16.4 µM,–
